According to US6503948B2, “Method for prevention or treatment of acute allograft rejection and a pharmaceutical composition therefor” (Southern Research Institute, priority 1998, dated 2003):
Several values for one entry are separate records, joined by “and”; a condition that tells them apart may be missing. Equal entries are not always repeated.

Test system: acute allograft rejection (heart graft, Fischer donor to Long-Evans recipient)
Test: Intra abdominal heterotopic cardiografting in rats with donor pretreatment; graft survival
Type: in vivo, rat
Procedure: 1-(2-chloroethyl)-1-nitroso-3-(3-methylcyclohexyl)urea was administered 5 mg per donor rat at a dosage of 20 mg/kg 24 hours prior to removal of heart tissue for transplantation. Administration of the compound above results in survival of 25 days, 27 days, 30 days, 32 days, and greater than 60 days.
According to this experiment, the donor rats were Fischer strain and the recipients were Long-Evans strains. These strains are mismatched at the major histocompatibility antigenic site (Ag locus). In the experiment, intra abdominal heterotopic cardiografting was performed using a modification of techniques described by Ono and Lindsey, Improved Technique of Heart Transplantation In Rats, Journal of Thoracic and Cardiovascular Surgery, 57: 225 (1969) and Lee et al., Heterotopic Heart and Lung Transplantation in the Rat, American Journal of Pathology, 59: 279 (1970), the entire contents of the disclosures of both of which are hereby incorporated by reference.
According to this experiment, a total dose of 20 milligrams per kilogram of the above compound was administered to donor rats 24 hours prior to transplantation. According to this dosage regimen, survival was prolonged from 10 to 25-60 days. Survival for 60 days indicated permanent survival, in other words, while typically surviving 10 days, the rats lived for 25-60 days, with the rats living to 60 days having a permanent survival.

CC1CCCC(NC(=O)N(CCCl)N=O)C1 (stereo not shown) [1-(2-chloroethyl)-1-nitroso-3-(3-methylcyclohexyl)urea]
survival (5 mg per donor rat, 20 mg/kg, given to donor 24 hours prior to removal of heart tissue, Fischer donors, Long-Evans recipients, typical survival 10 days): 25 days and 27 days and 30 days and 32 days and greater than 60 days and 25-60 days | median survival (considering dying rats only) versus the compound alone (donors treated with 20 mg/kg compound combined with 100 mg/kg methotrexate): increase in median survival | microscopic evaluation of hearts (rats surviving for 60 days, sacrificed after two years, donor dose 20 mg/kg): normal hearts | survival (recipients also treated with a single small dose of Cyclosporine A): increase in survival
